Laboratory results published in patent publication US11613768B2, “Microbial production of 2-phenylethanol from renewable substrates” (Arizona Board of Regents on behalf of Arizona State …, priority 2017, dated 2023).

Legend:
[1] = system: E. coli; details: prior report, Kang et al., 2014; cited from earlier work
[2] = system: E. coli NST74; experiment: Assaying 2PE toxicity: growth challenge with exogenous 2PE; type: cell-based, Escherichia coli
Protocol: Error bars reported at one standard deviation from triplicate experiments.
The effects of 2PE on E. coli growth rate and yield was determined by monitoring the impacts of its exogenous addition at increasing final concentrations on growing cultures. Approximately 1 ml of an E. coli NST74 seed culture was used to inoculate 50 ml of LB broth in a 250 mL shake flask. When cultures reached OD600˜0.6, 2PE was added to the flasks at an array of final concentrations ranging from 0 to 2 g/L. Culturing then resumed for an additional 6 h with periodic monitoring of OD600.
To assess if 2PE production in these initial strains was perhaps limited by end-product inhibition, a growth challenge study was performed determine to the response of E. coli growth to the addition of exogenous 2PE at a range of increasing final concentrations (FIG. 4).

[3] = target: T1, ARO10 (Saccharomyces cerevisiae, UniProt Q06408); details: ARO10 (PPDC), substrate phenylpyruvate; cited from earlier work
T1 sequence (Q06408 1-635): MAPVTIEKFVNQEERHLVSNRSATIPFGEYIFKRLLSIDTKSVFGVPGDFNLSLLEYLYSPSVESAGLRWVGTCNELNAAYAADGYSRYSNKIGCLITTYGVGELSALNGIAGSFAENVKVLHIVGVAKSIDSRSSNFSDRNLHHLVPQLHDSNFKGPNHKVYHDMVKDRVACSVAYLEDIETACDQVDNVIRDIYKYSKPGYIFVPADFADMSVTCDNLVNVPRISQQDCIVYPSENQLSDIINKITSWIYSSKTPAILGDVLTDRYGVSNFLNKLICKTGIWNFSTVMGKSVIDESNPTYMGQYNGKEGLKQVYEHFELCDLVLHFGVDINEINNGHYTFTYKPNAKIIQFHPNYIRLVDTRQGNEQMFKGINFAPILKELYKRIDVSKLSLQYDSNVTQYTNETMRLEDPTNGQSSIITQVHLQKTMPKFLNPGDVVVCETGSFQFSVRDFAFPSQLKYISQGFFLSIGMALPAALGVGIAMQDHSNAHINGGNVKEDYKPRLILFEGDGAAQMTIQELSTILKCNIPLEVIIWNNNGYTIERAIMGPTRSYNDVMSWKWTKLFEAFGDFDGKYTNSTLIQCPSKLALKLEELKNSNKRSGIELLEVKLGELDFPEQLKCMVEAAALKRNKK

[4] = target: TyrB (Escherichia coli, UniProt P04693); details: TyrB (Phe aminotransferase), substrate phenylpyruvate; cited from earlier work
[5] = exogenous 2PE added at OD600~0.6, LB broth, 6 h monitoring of OD600

TyrB, sequence (P04693 whole entry): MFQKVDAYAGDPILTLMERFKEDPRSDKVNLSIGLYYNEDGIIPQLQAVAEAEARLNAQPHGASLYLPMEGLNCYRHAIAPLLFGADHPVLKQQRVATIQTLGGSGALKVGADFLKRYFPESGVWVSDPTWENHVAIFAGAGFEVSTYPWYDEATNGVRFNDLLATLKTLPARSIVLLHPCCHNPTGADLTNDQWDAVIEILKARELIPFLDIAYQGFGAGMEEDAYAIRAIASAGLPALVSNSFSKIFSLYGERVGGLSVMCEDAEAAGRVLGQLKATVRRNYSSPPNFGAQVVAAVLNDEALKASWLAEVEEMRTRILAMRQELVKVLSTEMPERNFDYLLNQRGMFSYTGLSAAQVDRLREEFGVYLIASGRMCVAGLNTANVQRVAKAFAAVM

Compound	level reported to inhibit E. coli [1] [g/L]	toxicity threshold ([2]; E. coli growth) [g/L]	2PE concentration at which growth rate and yield were reduced [2, 5] [g/L]	2PE concentration at which severe growth inhibition occurred [2, 5]	Km [3] [µM]	Km [4] [µM]
OCCc1ccccc1 [2PE, 2-phenylethanol]	~1	~2	1	about 2 g/L	–	–
O=C(O)C(=O)Cc1ccccc1 [phenylpyruvate]	–	–	–	–	100	12
